Experimental data from patent US20120270237A9, “METHODS FOR THE IDENTIFICATION OF KINASE INTERACTING MOLECULES AND FOR THE PURIFICATION OF KINASE PROTEINS” (Cellzone AG, priority 2009, published 2012).

Columns and labels:
Conditions in all cases: 10 μM free compound
MST1 = biological target: T1, MST1 (Homo sapiens, UniProt Q13043); experiment: Kinobeads competition binding, HL60 cell lysate; set-up: endogenous in cells
T1 sequence (Q13043 1-487): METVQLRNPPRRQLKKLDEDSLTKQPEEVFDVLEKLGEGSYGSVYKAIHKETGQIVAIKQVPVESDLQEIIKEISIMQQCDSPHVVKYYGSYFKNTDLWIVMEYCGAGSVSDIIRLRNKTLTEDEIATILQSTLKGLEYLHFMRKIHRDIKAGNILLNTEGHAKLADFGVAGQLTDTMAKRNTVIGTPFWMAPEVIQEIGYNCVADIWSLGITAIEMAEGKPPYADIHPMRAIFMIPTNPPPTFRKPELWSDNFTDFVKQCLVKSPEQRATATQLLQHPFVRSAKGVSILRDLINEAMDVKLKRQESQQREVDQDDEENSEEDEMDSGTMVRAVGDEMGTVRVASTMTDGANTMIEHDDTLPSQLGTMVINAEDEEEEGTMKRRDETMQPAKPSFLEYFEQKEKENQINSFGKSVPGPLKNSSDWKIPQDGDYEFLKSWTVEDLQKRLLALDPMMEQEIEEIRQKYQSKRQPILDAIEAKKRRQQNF
Procedure, shortened: (§1)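 Relative binding comes from iTRAQ reporter signals after Kinobeads-style pull-down from HL60 lysate in the presence of 10 μM free compound versus solvent.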

NEK3 = biological target: T2, NEK3 (Homo sapiens, UniProt P51956); experiment: Kinobeads competition binding, HL60 cell lysate; set-up: endogenous in cells
T2 sequence (P51956 1-506): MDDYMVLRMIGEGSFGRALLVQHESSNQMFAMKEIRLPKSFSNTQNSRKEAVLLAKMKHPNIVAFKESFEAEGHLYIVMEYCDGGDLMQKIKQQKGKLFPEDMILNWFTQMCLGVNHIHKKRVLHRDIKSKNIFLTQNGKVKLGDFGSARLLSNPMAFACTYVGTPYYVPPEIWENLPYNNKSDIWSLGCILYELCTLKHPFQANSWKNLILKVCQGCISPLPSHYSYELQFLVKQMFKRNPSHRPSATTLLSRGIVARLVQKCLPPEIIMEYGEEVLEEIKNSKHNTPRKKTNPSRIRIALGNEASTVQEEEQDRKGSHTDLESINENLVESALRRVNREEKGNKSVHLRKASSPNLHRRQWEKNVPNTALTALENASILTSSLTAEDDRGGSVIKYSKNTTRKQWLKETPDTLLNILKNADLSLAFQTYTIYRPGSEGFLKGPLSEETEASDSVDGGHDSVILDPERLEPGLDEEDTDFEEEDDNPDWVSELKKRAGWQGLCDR
Procedure, shortened: as §1

IRE1 = IRE1 (Homo sapiens, UniProt O75460); experiment: Kinobeads competition binding, HL60 cell lysate; set-up: endogenous in cells
IRE1, sequence (O75460 19-977): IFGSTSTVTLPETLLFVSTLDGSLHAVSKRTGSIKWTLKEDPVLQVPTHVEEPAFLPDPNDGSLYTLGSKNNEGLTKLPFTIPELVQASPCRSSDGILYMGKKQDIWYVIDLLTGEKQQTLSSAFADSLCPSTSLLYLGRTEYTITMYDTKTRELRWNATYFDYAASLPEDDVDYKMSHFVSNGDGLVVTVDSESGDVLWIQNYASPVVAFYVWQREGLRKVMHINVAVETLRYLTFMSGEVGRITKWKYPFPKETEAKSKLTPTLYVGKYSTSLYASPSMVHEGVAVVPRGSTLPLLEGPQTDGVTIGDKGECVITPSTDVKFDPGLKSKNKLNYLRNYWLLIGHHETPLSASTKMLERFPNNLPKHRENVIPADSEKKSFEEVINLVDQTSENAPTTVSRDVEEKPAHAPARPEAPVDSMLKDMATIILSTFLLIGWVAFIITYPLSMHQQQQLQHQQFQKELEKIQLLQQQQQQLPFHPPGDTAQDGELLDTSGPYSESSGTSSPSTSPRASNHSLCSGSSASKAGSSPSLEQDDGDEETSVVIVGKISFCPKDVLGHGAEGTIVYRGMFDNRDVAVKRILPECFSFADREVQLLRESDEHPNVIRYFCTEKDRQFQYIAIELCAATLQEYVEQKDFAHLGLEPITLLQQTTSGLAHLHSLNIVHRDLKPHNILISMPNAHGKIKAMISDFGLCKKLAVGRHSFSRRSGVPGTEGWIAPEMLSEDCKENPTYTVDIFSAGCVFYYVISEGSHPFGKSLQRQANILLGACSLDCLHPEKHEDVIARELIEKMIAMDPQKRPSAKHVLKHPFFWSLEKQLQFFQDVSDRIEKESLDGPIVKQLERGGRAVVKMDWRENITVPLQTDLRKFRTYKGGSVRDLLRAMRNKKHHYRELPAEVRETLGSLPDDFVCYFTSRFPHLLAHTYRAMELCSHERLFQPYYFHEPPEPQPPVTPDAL
Procedure, shortened: as §1

MAP3K7 = biological target: T3, MAP3K7 (Homo sapiens, UniProt O43318); experiment: Kinobeads competition binding, HeLa Placenta lysate mix
T3 construct: capturing and identification of kinases from mixed HeLa placenta lysates; endogenous in cells; host or cells: mixed lysate of HeLa cells and placenta tissue
T3 sequence (O43318 whole entry): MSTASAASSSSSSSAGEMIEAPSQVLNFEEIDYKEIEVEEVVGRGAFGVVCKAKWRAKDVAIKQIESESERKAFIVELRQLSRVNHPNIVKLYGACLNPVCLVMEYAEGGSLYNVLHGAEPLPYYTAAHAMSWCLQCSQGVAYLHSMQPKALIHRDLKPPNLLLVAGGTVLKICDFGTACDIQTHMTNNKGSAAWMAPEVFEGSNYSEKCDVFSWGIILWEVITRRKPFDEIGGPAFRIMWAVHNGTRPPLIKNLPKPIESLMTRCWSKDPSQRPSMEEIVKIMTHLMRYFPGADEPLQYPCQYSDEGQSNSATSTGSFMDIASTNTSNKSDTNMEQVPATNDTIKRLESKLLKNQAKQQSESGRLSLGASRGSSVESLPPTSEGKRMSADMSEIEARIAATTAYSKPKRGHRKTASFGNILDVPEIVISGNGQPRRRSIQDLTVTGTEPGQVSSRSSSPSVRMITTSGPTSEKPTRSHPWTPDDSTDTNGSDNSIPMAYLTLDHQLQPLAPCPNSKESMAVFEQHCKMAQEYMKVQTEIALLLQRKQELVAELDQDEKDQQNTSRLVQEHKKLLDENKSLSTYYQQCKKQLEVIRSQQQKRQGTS
Description: (§2) To one aliquot of cell lysate 10 μM of the free compound (FIG. 3, CZC31326) was added and allowed to bind to proteins in the lysate. Then the affinity matrix with the immobilized compound was added to capture proteins that were not interacting with the previously added free compound. Beads were separated from the lysate and bead bound proteins were eluted in SDS sample buffer and subsequently separated by SDS-Polyacrylamide gel electrophoresis (FIG. 10). Suitable gel bands were cut out and subjected to in-gel proteolytic digestion with trypsin. The second lysate aliquot was processed identically, however no free compound was added (DMSO solvent control). Peptides originating from samples 1 and 2 were labeled with iTRAQ reagents (iTRAQ 114 and iTRAQ 117) and the combined samples were analyzed with a nano-flow liquid chromatography system coupled online to a tandem mass spectrometer (LC-MS/MS) experiment followed by iTRAQ reporter ion quantification in the MS/MS spectra as described in Example 2.

TNK1 = biological target: T4, TNK1 (Homo sapiens, UniProt Q13470); experiment: as above
T4 construct: capturing and identification of kinases from mixed HeLa placenta lysates; endogenous in cells; host or cells: mixed lysate of HeLa cells and placenta tissue
T4 sequence (Q13470 whole entry): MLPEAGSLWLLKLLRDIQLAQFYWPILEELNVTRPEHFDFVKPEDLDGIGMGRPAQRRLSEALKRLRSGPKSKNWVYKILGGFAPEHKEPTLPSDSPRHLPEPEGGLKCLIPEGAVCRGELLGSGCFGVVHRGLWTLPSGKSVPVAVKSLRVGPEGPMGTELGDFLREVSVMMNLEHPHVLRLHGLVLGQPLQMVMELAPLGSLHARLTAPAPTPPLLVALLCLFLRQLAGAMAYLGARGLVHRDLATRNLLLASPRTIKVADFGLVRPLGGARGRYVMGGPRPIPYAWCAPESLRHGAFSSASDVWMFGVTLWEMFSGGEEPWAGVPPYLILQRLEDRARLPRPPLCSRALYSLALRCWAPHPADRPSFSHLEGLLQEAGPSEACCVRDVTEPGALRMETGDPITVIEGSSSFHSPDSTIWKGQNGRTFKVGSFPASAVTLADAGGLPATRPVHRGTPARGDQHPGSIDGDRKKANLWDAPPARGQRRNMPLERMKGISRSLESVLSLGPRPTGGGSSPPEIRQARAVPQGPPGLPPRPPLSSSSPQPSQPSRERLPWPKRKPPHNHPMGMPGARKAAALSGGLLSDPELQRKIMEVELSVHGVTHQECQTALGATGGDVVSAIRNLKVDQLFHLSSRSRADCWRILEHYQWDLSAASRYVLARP
Description: as §2

KDR = biological target: T5, KDR (Homo sapiens, UniProt P35968); experiment: as above
T5 construct: capturing and identification of kinases from mixed HeLa placenta lysates; endogenous in cells; host or cells: mixed lysate of HeLa cells and placenta tissue
T5 sequence (P35968 20-1356): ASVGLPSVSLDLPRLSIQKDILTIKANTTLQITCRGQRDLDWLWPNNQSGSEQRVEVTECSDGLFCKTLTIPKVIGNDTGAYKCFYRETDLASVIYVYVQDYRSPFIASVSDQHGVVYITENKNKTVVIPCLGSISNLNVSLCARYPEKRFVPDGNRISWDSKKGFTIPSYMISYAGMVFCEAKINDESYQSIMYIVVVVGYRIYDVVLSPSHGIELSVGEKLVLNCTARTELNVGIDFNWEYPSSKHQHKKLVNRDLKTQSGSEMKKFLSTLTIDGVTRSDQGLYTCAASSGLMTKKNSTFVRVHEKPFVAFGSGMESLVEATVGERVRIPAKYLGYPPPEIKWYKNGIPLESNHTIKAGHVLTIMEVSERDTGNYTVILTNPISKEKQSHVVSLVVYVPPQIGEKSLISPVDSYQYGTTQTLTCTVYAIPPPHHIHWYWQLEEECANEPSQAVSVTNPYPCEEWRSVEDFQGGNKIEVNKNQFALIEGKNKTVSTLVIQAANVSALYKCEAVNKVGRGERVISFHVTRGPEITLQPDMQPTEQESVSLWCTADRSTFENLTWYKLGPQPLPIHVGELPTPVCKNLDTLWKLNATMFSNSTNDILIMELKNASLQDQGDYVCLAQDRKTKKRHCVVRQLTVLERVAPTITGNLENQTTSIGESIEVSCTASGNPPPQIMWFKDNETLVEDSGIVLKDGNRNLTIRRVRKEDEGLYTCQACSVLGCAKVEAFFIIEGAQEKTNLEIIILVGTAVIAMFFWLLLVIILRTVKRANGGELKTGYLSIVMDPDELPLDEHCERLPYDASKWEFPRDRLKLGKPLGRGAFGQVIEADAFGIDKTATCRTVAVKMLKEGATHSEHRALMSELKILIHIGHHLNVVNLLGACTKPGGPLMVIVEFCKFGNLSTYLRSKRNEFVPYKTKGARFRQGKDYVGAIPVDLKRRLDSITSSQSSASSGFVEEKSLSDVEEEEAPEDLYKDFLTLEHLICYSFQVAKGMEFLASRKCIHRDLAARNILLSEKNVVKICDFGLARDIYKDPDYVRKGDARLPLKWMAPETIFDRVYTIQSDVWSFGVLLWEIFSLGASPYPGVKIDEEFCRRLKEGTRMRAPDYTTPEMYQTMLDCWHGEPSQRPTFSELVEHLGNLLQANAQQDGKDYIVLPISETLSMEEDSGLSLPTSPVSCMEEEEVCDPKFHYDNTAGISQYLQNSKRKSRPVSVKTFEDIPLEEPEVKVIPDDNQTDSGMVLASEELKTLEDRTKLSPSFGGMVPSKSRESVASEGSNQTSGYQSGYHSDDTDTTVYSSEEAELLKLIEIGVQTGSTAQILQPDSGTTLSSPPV
Description: as §2

What does the source list for `CS(=O)(=O)Nc1ccccc1Nc1nc(Nc2cccc(OCCN)c2)ncc1Cl` [CZC31326, N-(2-(2-(3-(2-aminoethoxy)phenylamino)-5-chloropyrimidin-4-ylamino)phenyl)methanesulfonamide]?
Competition % (MST1): 97.7%; inhibition at 10 µM (NEK3): 97%; inhibition at 10 µM (IRE1): 95.1%; inhibition at 10 µM (MAP3K7): 82.1%; inhibition at 10 µM (TNK1): 94.3%; inhibition at 10 µM (KDR): 90%
